# According to PMC11901561, “Free Radical Scavenging Activity and Inhibition of Enzyme-Catalyzed Oxidation by trans-aryl-Palladium Complexes” (Molecules, 2025):
# Read-outs that look alike come from different tables or passages of the source.
# What was measured:
# [1] = DPPH radical scavenging test (spectrophotometric, 517 nm); details: for EC50 (g Antioxidant/kg DPPH°): EC50 expressed as weight of antioxidant per kg of DPPH radical; for EC50: concentration scavenging 50% of DPPH, 90% MeOH, 30 min, mean ± SD
# Protocol: Radical scavenging capacity, as an indicator of the antioxidant capacity of compounds against 1,1-diphenyl-2-picrylhydrazyl (DPPH) free radicals and 2,2-azinobis (3-ethyl- enzothiazoline-6-sulfonic acid), ABTS•+ radical cations, was determined using a spectrophotometric assay. Antiradical capacity analysis was performed either on pure MeOH for ABTS or the mixture of MeOH/distilled water (90:10 v/v) for DPPH. For both ABTS and DPPH assays, the stock solutions of complexes were prepared in DMSO. Quercetin was used as an antioxidant standard in the DPPH and ABTS•+ scavenging tests. […] EC50 values were estimated using nonlinear regression. A lower EC50 value indicates higher antiradical activity.
# The DPPH assay was performed according to the method developed by Brand-Williams et al. slightly modified. A solution of 1 mM DPPH in 90% (v/v) methanol was stirred for 40 min. The absorbance of the solution was adjusted to 0.650 ± 0.020 at 517 nm using fresh 90% (v/v) methanol. Then, 0.02 mL of quercetin taken as a standard or sample was mixed with 1.98 mL of DPPH solution and incubated for 30 min in the dark covered with aluminum foil. When reacting with an antioxidant, the DPPH• radical is converted into DPPH, and its color changes from purple to yellow. The antioxidant effect may be easily evaluated by observing the decrease in visible absorption. The absorbance decrease was monitored at 517 nm after 30 min of incubation with a Hewlett Packard 8453 spectrophotometer. The control consisted of 0.02 mL of DMSO in 1.98 mL of DPPH solution. A similar formula (Equation (1)) was applied to determine the DPPH radical scavenging activity.
# (§1) Results were expressed as mean values ± standard deviation (SD). All measurements were replicated three times. EC50 values were calculated with GraphPad Prism 6.0 (GraphPad Software, San Diego, CA, USA) under the application of the function “log (inhibitor) versus normalized response-variable slope” after converting the concentrations into their decimal logarithm. The results were analyzed using Student’s test and a two-way analysis of variance (ANOVA), and a multiple comparison of all data was performed using Tukey’s multiple comparisons test. p < 0.0001 was considered significant.
# [2] = Antiradical efficiency (kinetic study via DPPH assay); details: for AE (antiradical efficiency): AE = 1/EC50.TEC50, DPPH; for Classification of antiradical efficiency: according to Sanchez-Moreno, from AE value; for TEC50: time needed to reach the steady state at the EC50 concentration, DPPH
# Protocol: The reaction between potential antioxidants and the oxidized substrate requires a steady state which will depend on several parameters, such as the reaction time. The time needed to reach the steady state, at the concentration corresponding to EC50, is more and more frequently used and can be defined as TEC50. In brief, TEC50 was determined by plotting the recorded absorbance during the period for the EC50 concentration for the considered antioxidant compound. […] The antiradical efficiency of compounds and their classification are considered according to the work of Sanchez-Moreno [69].
# [3] = biological target: T1, horseradish peroxidase (HRP) (Armoracia rusticana, UniProt P00433); assay: biochemical; format: biochemical; details: for EC50: HRP-H2O2/L-012 system, pH 7.5, 37 °C, 30 min, read-out: EC50 chemiluminescence assay; for Effect on chemiluminescence at lowest concentrations: 1, 5, and 10 µM, HRP-H2O2/L-012
# T1 sequence (P00433 31-338 limits assumed): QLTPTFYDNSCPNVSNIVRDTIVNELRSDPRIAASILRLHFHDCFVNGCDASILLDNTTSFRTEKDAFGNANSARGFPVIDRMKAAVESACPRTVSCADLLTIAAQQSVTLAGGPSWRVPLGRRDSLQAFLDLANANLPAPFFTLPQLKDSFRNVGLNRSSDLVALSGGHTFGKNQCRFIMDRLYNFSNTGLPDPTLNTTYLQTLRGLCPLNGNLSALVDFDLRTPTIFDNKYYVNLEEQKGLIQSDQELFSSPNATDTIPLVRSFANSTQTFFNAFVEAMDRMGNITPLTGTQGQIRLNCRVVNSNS
# Protocol: To investigate the effect of selected palladium (II)-based complexes on the peroxidase (HRP)-catalyzed oxidation of the chemiluminescent probe (L-012), in the presence of hydrogen peroxide (H2O2), the chemiluminescence technique was used. Briefly, plate-reader-based luminescence measurements were performed in white 96-well plates using a Fluoroskan Ascent FL microplate reader (Thermo Labsystems, Vantaa, Finland), with the temperature set at 37 °C. To 5 µL of a stock solution of HRP (1 mg/mL) in phosphate buffer (pH = 7.5) per well, we successively added 10 µL of L-012 (aqueous solution, 0.84 mmoL) and 2 µL of tested compound in 163 µL of buffer solution. The reaction was triggered by adding 20 µL hydrogen peroxide (0.19 µM) to reach the final volume of 200 µL. The light emission, produced from oxidation of L-012 by HRP/H2O2 system, in the presence or absence of the tested palladium complex, was recorded in kinetic mode for 30 min. Inhibition of the emitted light due to tested complexes was associated with higher activity. The following formula was applied to calculate the inhibiting activity of complexes towards the oxidation of L-012 catalyzed by the HRP/H2O2 system:% inhibition = (L control − L Sample) x 100/L Control
# as §1
# [4] = ABTS radical scavenging test (spectrophotometric, 734 nm); details: for Radical scavenging activity against ABTS•+: inhibition curve did not converge, EC50 could not be calculated
# Protocol: Radical scavenging capacity, as an indicator of the antioxidant capacity of compounds against 1,1-diphenyl-2-picrylhydrazyl (DPPH) free radicals and 2,2-azinobis (3-ethyl- enzothiazoline-6-sulfonic acid), ABTS•+ radical cations, was determined using a spectrophotometric assay. Antiradical capacity analysis was performed either on pure MeOH for ABTS or the mixture of MeOH/distilled water (90:10 v/v) for DPPH. For both ABTS and DPPH assays, the stock solutions of complexes were prepared in DMSO. Quercetin was used as an antioxidant standard in the DPPH and ABTS•+ scavenging tests. EC50 is defined as the concentration of compound (µM) required to scavenge 50% of ABTS•+ or DPPH radicals. EC50 values were estimated using nonlinear regression. A lower EC50 value indicates higher antiradical activity.
# The ABTS assay was based on the method described by Re et al.. For the generation of ABTS•+ radicals, sodium persulfate (2.45 mM) aqueous solution was mixed with ABTS (7 mM) and incubated overnight in the dark to obtain a dark colored solution. The stock solution of ABTS•+ was then diluted by adding pure methanol (100%) to obtain an absorbance of 0.70 (±0.02) at 734 nm at 30 °C. An aliquot of 0.02 mL of tested compound was added to 1.98 mL of ABTS•+, and the decrease in absorbance was monitored at 734 nm after 30 min [80]. During this reaction, the blue green ABTS radical cation is converted back into its colorless neutral form in the presence of the potential antioxidant molecule. A control consisted of 0.02 mL of DMSO in 1.98 mL of ABTS•+ solution. The reducing capacity was determined according to the following formula:% inhibition = (A control − A Sample) × 100/A Control (1)
# as §1
# [5] = flavonoid comparison ref 63; read-out: IC50 DPPH, literature value; cited from earlier work
# [6] = concentration scavenging 50% of ABTS•+, MeOH, 30 min, mean ± SD
Compound,EC50 (g Antioxidant/kg DPPH°) [1],EC50 [1] [µM],AE (antiradical efficiency) [2],Classification of antiradical efficiency [2],EC50 [3] [µM],"EC50 [4, 6] [mM]",TEC50 [2] [min],Effect on chemiluminescence at lowest concentrations [3],Activity against the ABTS radical ([4]; 100 µM),IC50 [5] [µM],EC50 ([4]; value given in text in mM) [mM],IC50 ([1]; value given in text in mM) [mM],"Radical scavenging activity against DPPH ([1]; inhibition curve did not converge, EC50 could not be calculated)",Radical scavenging activity against ABTS•+ [4],Radical scavenging activity against ABTS•+ ([4]; listed as Cisplatin (CisPt)),Activity against the DPPH radical ([1]; 100 µM)
"COc1cc[c]([Pd@SP2]([Cl])([PH](c2ccccc2)(c2ccccc2)c2ccccc2)[PH](c2ccccc2)(c2ccccc2)c2ccccc2)cc1 [Complex 3, Trans-Chloro(4-methoxyphenyl) bis(triphenylphosphine)Palladium]",73.49 ± 38 g Antioxidant/kg DPPH°,1.9 ± 0.87,0.2160 ×10^−3,Low,5.8 ± 2.6,0.0111 ± 0.00094,–,–,–,–,–,–,–,–,–,–
"[I][Pd]([c]1ccccc1)([PH](c1ccccc1)(c1ccccc1)c1ccccc1)[PH](c1ccccc1)(c1ccccc1)c1ccccc1 [Complex 7, Trans-Iodo(phenyl)bis(triphenylphosphine)Palladium]",1882.11 ± 37 g Antioxidant/kg DPPH°,45.1 ± 0.95,0.0081 ×10^−3,Low,67 ± 20.1,0.00614 ± 0.00094,66,weak effect,good activity,–,–,–,–,–,–,–
"[Cl][Pd@SP2]([c]1ccccc1)([PH](c1ccccc1)(c1ccccc1)c1ccccc1)[PH](c1ccccc1)(c1ccccc1)c1ccccc1 [Complex 9, Trans-Chloro(phenyl)bis(triphenylphosphine)Palladium]",271.97 ± 36 g Antioxidant/kg DPPH°,7.33 ± 0.97,0.1019 ×10^−3,Low,39.2 ± 17,0.0103 ± 0.00064,36,weak effect,–,–,–,–,–,–,–,–
Oc1cc(O)c2c(c1)O[C@H](c1ccc(O)c(O)c1)[C@H](O)C2 [epicatechin],–,–,–,–,–,–,–,–,–,15.7,–,–,–,–,–,–
"COc1cc[c]([Pd@SP2]([Br])([PH](c2ccccc2)(c2ccccc2)c2ccccc2)[PH](c2ccccc2)(c2ccccc2)c2ccccc2)cc1 [Complex 2, Trans-Bromo(4-methoxyphenyl)bis(triphenylphosphine)Palladium]",–,7.09 ± 0.94,0.2155 ×10^−3,Low,1.48 ± 0.71,0.00701 ± 0.00098,16,–,–,–,–,–,–,–,–,–
"CC(=O)Oc1cc[c]([Pd@SP2]([Br])([PH](c2ccccc2)(c2ccccc2)c2ccccc2)[PH](c2ccccc2)(c2ccccc2)c2ccccc2)cc1 [Complex 5, Trans-Bromo(4-acethoxyphenyl)bis(triphenylphosphine)Palladium]",653.57 ± 20 g Antioxidant/kg DPPH°,15.5 ± 0.96,0.0264 ×10^−3,Low,5.28 ± 2.3,0.1358 ± 0.00025,58,–,–,–,0.135,–,–,–,–,–
"CC(=O)Oc1cc[c]([Pd@SP2]([Cl])([PH](c2ccccc2)(c2ccccc2)c2ccccc2)[PH](c2ccccc2)(c2ccccc2)c2ccccc2)cc1 [Complex 6, Trans-Chloro(4-acethoxyphenyl)bis(triphenylphosphine)Palladium]",573.94 ± 40 g Antioxidant/kg DPPH°,14.3 ± 0.92,0.0328 ×10^−3,Low,6.46 ± 2.28,0.0458 ± 0.00095,53,–,–,–,–,–,–,–,–,–
"CC(=O)Oc1cc[c]([Pd@SP2]([I])([PH](c2ccccc2)(c2ccccc2)c2ccccc2)[PH](c2ccccc2)(c2ccccc2)c2ccccc2)cc1 [Complex 4, Trans-Iodo(4-acethoxyphenyl)bis(triphenylphosphine)Palladium]","82,194.89 ± 33 g Antioxidant/kg DPPH°",1840.8 ± 0.44,0.0002 ×10^−3,Low,11.3 ± 3.3,0.0109 ± 0.00095,78,weak effect,–,–,–,1.84,–,–,–,–
"COc1cc[c]([Pd@SP2]([I])([PH](c2ccccc2)(c2ccccc2)c2ccccc2)[PH](c2ccccc2)(c2ccccc2)c2ccccc2)cc1 [Complex 1, Trans-Iodo(4-methoxyphenyl)bis(triphenylphosphine)Palladium]",49.31 ± 39 g Antioxidant/kg DPPH°,1.14 ± 0.9,1.8437 ×10^−3,–,3.56 ± 1.87,0.00578 ± 0.00098,11,–,–,–,–,–,–,–,–,–
"N.N.[Cl][Pt][Cl] [CisPt, Cisplatin, reference compound]",–,–,–,–,–,–,–,–,–,–,–,–,no antioxidant activity,no antioxidant activity,does not show any radical scavenging activity,–
"[Br][Pd@SP2]([c]1ccccc1)([PH](c1ccccc1)(c1ccccc1)c1ccccc1)[PH](c1ccccc1)(c1ccccc1)c1ccccc1 [Complex 8, Trans-Bromo(phenyl)bis(triphenylphosphine)Palladium]",260.96 ± 40 g Antioxidant/kg DPPH°,6.64 ± 0.91,0.0955 ×10^−3,Low,33.3 ± 11.7,0.0143 ± 0.00092,40,weak effect,–,–,–,–,–,–,–,good activity
